Paper PMC7553643 (Bioorganic & medicinal chemistry letters, 2009)
Marks after values point to notes of the source that are not given here.

What was measured:
[1] = Pharmacokinetics in rats after single po and iv dosing; conditions: for AUC(0-inf): plasma
Caco2 = Caco2 permeability; format: in vitro ADME
Caco2 permeability = format: in vitro ADME; conditions: human, Caco-2
[2] = Stability in rat liver microsomes; format: in vitro ADME
[3] = rats, po, dose normalized to 30 mg/kg

solubility (Solubility) | clearance ([1]; rat, in vivo, iv, 30 mg/kg) [mL/min/kg] | BA ([1]; rats, 30 mg/kg, po) [%] | AUC (0-∞) (dose normalized to 30 mg/kg) [1, 3] | Cmax (dose normalized to 30 mg/kg) [1, 3] | Caco2 permeability (Caco2) | half-life ([1]; rat, in vivo, iv, 30 mg/kg) [min] | AUC ([1]; rat, in vivo, po, 30 mg/kg) [ng·h/mL] | Cmax ([1]; rat, in vivo, po, 30 mg/kg) [ng/mL] | half-life ([1]; rat, in vivo, po, 30 mg/kg) [min] | AUC(0-inf) ([1]; rat, iv, 30 mg/kg) [ng·h/mL] | AUC(0-inf) ([1]; rat, po, 30 mg/kg) [ng·h/mL] | Papp (Caco2 permeability) [×10⁻⁶ cm/s] | remaining at 0.25 h [2] [%] | Structure (SMILES)
less than 5 μM | 113 | 1.9 | 74.4^a ng h/m | 16.7^a ng/mL | not detected |  |  |  |  |  |  |  |  | CCCCN1C(=O)C(CC2CCCCC2)NC(=O)C12CCN(Cc1ccc(Oc3ccccc3)cc1)CC2.Cl (centres unmarked) [Compound 1a]
26 µM | 16 | 34.1 |  |  |  | 11.1 | 10500 | 7200 | 48.4 | 3090 | 10500 | 26.4 | 22 | CCCCN1C(=O)[C@H](CC2CCCCC2)NC(=O)C12CCN(Cc1ccc(Oc3ccc(C(=O)O)cc3)cc1)CC2.Cl [Compound 12, 4-(4-{[(3S)-1-butyl-3-(cyclohexylmethyl)-2,5-dioxo-1,4,9-triaza-spiro[5.5]undec-9-yl]methyl}phenoxy)benzoic acid hydrochloride]
